Experimental data: patent publication US20230134760A1, “CAR AND NRF2 DUAL ACTIVATOR AGENTS FOR CYCLOPHOSPHAMIDE-BASED AND DOXORUBICIN-BASED TREATMENTS OF CANCER” (priority 2020, published 2023)

How the values were obtained:
hCAR [1] = assay: hCAR luciferase reporter assay in HepG2 cells (hCAR1+A, CYP2B6-2.2k reporter); type: cell-based, human
Experimental: (§1) HepG2 cells were cultured in 24-well plates (1×10^5 cells/well) and transfected with either a hCAR1+A expression vector (30 ng/well), a CYP2B6-2.2k reporter (60 ng/well) reporter, and pRL-TK (10 ng/well) or a ARE expression vector using X-tremeGENE 9 DNA Transfection Reagent (Sigma-Aldrich). After an overnight transfection, cells were treated with a vehicle control (0.1% DMSO), RIF (10 μM), DL7076 (1 μM, 5 μM, and 10 μM) for 24 hours. Cell lysates were assayed for luciferase activity and normalized against the activity of the Renilla luciferase using a Dual-Luciferase Kit (Promega).

Nrf2 = Nrf2 luciferase reporter assay in HepG2 cells (ARE); type: cell-based; settings: HepG2, screening, FIG. 37b
Experimental: as §1

hCAR [2] = assay: Ad/EYFP-hCAR translocation assay in HPH; type: cell-based, human; settings: Ad-EYFP-hCAR-infected HPH; DL7076 10 μM, PB 1 mM
Experimental: HPH were seeded on collagen-coated 12-well plates. 24 hours after seeding, HPH were infected with Ad/EYFP-hCAR at a concentration of 5 μL/mL of media and incubated overnight. HPH infected cells were treated with a vehicle control (DMSO 0.01%), a positive control (1 mM PB), and compounds of interest for 8 h. Fluorescence was viewed using the YFP channel (Nikon Eclipse Ti) and quantified by identifying the number of total cells expressing EYFP-hCAR over EYFP-hCAR present in the nucleus. Representative images are shown, and quantitative data represents the mean±SD of 3 individual images for each treatment group.

cleaved caspase-3 = assay: Cleaved caspase-3 Western blot in H9c2 cardiomyocytes; type: cell-based, rat
Excerpt: Protein was harvested using cell lysis buffer (Cell Signaling Technology, Danvers, Mass.) with a complete protease inhibitor cocktail (Roche, Mannheim, Germany) prior to homogenizing via sonification. Homogenized protein from treated HPH, H9c2, BT549, and MDA-MB-231 cells were resolved on NuPage Novex Bis-Tris 4-12% gels (Life Technologies) or NuPage Novex Bis-Tris 12% gel and transferred through electrophoresis onto immobilon-P polyvinylidene difluoride (PVDF) membranes. Membranes were blocked with 5% BSA or 5% milk in Tris-Buffer saline with Tween 20 (TBST). Further, membranes were incubated with specific antibodies against human CYP2B6 (1:1000, Abcam), CYP3A4 (1:1000, Millipore Sigma), HO-1 (1:1000, Abcam), cleaved caspase-3 (1:1000 Cell Signaling Technologies), Nrf2 (1:1000, Abcam), TATA-Binding Protein (1:500, Santa Cruz) β-actin (1:3000, Millipore Sigma) at 4° C. overnight. Following overnight incubation, horseradish peroxidase goat anti-mouse or anti-rabbit IgG antibodies were used for secondary incubation. Membranes were developed using SuperSignal West Pico Chemiluminescent Substrate (Thermo Scientific) or Radiance Q (Azure). Two TNBC cell lines, cardiomyocytes, and HPH protein samples were isolated and resolved on a 4-12% or 12% SDS PAGE gel followed by electrophoretic transfer to a PVDF membrane. Membranes were probed 1:1000 for CYP2B6, CYP3A4, Nrf2, cleaved caspase 3, and HO-1 using β-actin (1:3000) or TBP (1:500) as a loading control.

BT549 cells [3] = assay: Oxidative stress imaging (DFDA) in BT549 cells; type: cell-based; settings: BT549, DL7076 5 μM + DOX
BT549 cells [4] = assay: Multi-organ co-culture (BT549/HPH/H9c2), BT549 viability; type: cell-based; settings: DL7076 10 μM
Experimental: (§2) Additionally, HPH were cultured in collagen-coated 6-well plates and pre-treated as described in the previous co-culture system. BT549 and H9c2 cells were plated on similar modified coverslips 0.8×10^5 cells and allowed to attach for 24 hours during hepatocyte pre-treatment. […] Following pre-treatment, BT549 coverslips were inserted adjacent to H9c2 coverslips over the sandwich cultured HPH as depicted in FIG. 43a. […] Both BT549 and H9c2 cells were harvested at indicated time points and assess for viability, apoptosis, and DNA damage as detailed further. H9c2 cells were seeded 0.8×10^5 in 24-well plates. […] A Cell Counting Kit-8 (Enzo) assay was carried out. Cell viability was described as a percent of vehicle control (0.1% DMSO).

H9c2 cells = assay: Multi-organ co-culture (BT549/HPH/H9c2), H9c2 viability; type: cell-based, rat; settings: DL7076 10 μM
Experimental: as §2

BT549 cells [5] = assay: Phosphorylated H2AX imaging, BT549 cells from multi-organ co-culture; type: cell-based; settings: CPA/DOX + DL7076
Experimental: Additionally, HPH were cultured in collagen-coated 6-well plates and pre-treated as described in the previous co-culture system. BT549 and H9c2 cells were plated on similar modified coverslips 0.8×10^5 cells and allowed to attach for 24 hours during hepatocyte pre-treatment. […] Following pre-treatment, BT549 coverslips were inserted adjacent to H9c2 coverslips over the sandwich cultured HPH as depicted in FIG. 43a. […] Both BT549 and H9c2 cells were harvested at indicated time points and assess for viability, apoptosis, and DNA damage as detailed further. H9c2 rat cardiomyocytes seeded at 0.8×10^5 in 24-well plates. […] Cells were washed 3× with PBS. […] The oxidation of DFDA to the fluorescent dichlorofluorescein was viewed using fluorescence microscopy (Nikon Eclipse Ti) with a FITC filter at […] and quantified using Brightspot detection for fluorescent detection of triplicate images and normalized to the vehicle control (0.1% DMSO). […] Phosphorylation was calculated through fluorescence intensity all normalized to the vehicle control. […] The coverslips were visualized at 10× magnification using fluorescence microscopy (Nikon Eclipse Ti) and the amount of phosphorylation was quantified as mean intensity using brightspot detection of quadruplet images of the whole well and normalized to the vehicle control (0.1% DMSO).

Compound: O=C(NCCN=C=S)c1c(-c2ccc3ccccc3c2)nc2sccn12 [DL7076, N-(2-Isothiocyanatoethyl)-6-(naphthalen-2-yl)imidazo[2,1-b]thiazole-5-carboxamide]
- CAR1+A activation, luciferase reporter (hCAR [1]; HepG2, 10 μM, 24 hours, vs CITCO 1 μM): activate CAR1+A in a comparable manner to the prototypical CAR activator, CITCO
- hCAR luciferase activity (efficacy among compound hybrids) (hCAR [1]; HepG2, screening, FIG. 37a): highest efficacy
- Nrf2 luciferase activity (potency and efficacy) (Nrf2): higher potency and efficacy
- EYFP-hCAR nuclear translocation (hCAR [2]): triggered hCAR nuclear translocation
- cleaved caspase-3 expression with pretreatment (cleaved caspase-3; H9c2, DL7076 pretreatment + DOX 2.5 μM): notably reduced in a concentration dependent manner
- cleaved caspase-3 expression, compound alone (cleaved caspase-3; H9c2, without DOX): no expression in cleaved caspase-3
- ROS with cotreatment (BT549 cells [3]): significant ROS without reduction
- CPA/DOX cytotoxicity in BT549 cells (BT549 cells [4]): selectively enhanced CPA/DOX regimen cytotoxicity in BT549 cells
- H9c2 viability during CPA/DOX treatment (H9c2 cells): h9c2 cardiomyocyte viability can be protected during CPA/DOX treatment
- H2AX phosphorylation (DNA damage) (BT549 cells [5]): effectively enhanced the CPA/DOX-mediated DNA damage
